Laboratory results as given in ChEMBL document CHEMBL5380779, “Small Molecules Targeting the RNA-Binding Protein HuR Inhibit Tumor Growth in Xenografts” (J Med Chem, 2023).
Activity calls are given as the source filed them. No cut-off for these calls is given here.

Legend:
[1] = Inhibition of full-length HuR-ARE fluorescein-labeled Msi1 mRNA binding (unknown origin) incubated for 2 hrs by fluorescence polarization assay; parameters: species or system Homo sapiens
MDA-MB-231 [2] = assay: Cytotoxicity against human MDA-MB-231 cells assessed as inhibition of cell growth by MTT assay; assay type: functional, cell-based
[3] = target: ELAV-like protein 1 (Homo sapiens) (UniProt Q15717); assay: Thermal stabilization of HuR in human MDA-MB-231 cells at 10 uM at 42 to 54 degreeC incubated for 1 hr by western blot based cellular thermal shift assay; assay type: cell-based
ELAV-like protein 1 (Homo sapiens), sequence (Q15717 whole entry): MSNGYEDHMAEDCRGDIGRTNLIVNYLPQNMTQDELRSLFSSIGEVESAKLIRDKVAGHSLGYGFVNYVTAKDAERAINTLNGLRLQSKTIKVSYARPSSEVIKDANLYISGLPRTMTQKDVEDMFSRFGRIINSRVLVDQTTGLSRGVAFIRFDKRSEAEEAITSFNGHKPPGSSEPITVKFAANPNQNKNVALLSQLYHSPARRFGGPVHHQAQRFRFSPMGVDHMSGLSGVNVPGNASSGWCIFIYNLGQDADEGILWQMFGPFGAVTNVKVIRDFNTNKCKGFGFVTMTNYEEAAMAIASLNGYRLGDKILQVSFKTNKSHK

MDA-MB-231 [4] = assay: Inhibition of cell invasion of human MDA-MB-231 cells at 5 uM incubated for 24 hrs by crystal violet staining based analysis; assay type: functional
MDA-MB-231 [5] = assay: Downregulation of HuR protein expression in human MDA-MB-231 cells at 5 to 10 uM incubated for 48 hrs by Western blotting analysis; assay type: functional, cell-based; settings: dose 5-10 µM
MDA-MB-231 [6] = assay: Cytotoxicity against HuR knockout 1 human MDA-MB-231 cells assessed as inhibition of cell growth by MTT assay (reference value: 1.491 uM); assay type: functional, cell-based
MDA-MB-231 [7] = assay: Inhibition of HuR-Msi2 mRNA binding in human MDA-MB-231 cells at 5 uM incubated for 6 hrs by RNP immunoprecipitation assay; assay type: cell-based
MDA-MB-231 [8] = assay: Downregulation of XIAP protein expression in human MDA-MB-231 cells incubated for 48 hrs by Western blotting analysis; assay type: functional, cell-based; settings: dose 5-10 µM
MDA-MB-231 [9] = assay: Inhibition of HuR-16-nt biotinylated ARE Msi1 mRNA binding in human MDA-MB-231 cells at 20 uM by Western blotting analysis based pull-down assay; assay type: cell-based
MDA-MB-231 [10] = assay: Cytotoxicity against HuR knockout 2 human MDA-MB-231 cells assessed as inhibition of cell growth by MTT assay (reference value: 1.491 uM); assay type: functional, cell-based
MDA-MB-231 [11] = assay: Inhibition of HuR-XIAP mRNA binding in human MDA-MB-231 cells at 5 uM incubated for 6 hrs by RNP immunoprecipitation assay; assay type: cell-based
MDA-MB-231 [12] = assay: Downregulation of Msi2 protein expression in human MDA-MB-231 cells incubated for 48 hrs by Western blotting analysis; assay type: functional, cell-based; settings: dose 5-10 µM
MDA-MB-231 [13] = assay: Downregulation of Bcl-2 protein expression in human MDA-MB-231 cells incubated for 48 hrs by Western blotting analysis; assay type: functional, cell-based; settings: dose 5-10 µM
MDA-MB-231 [14] = assay: Inhibition of HuR-16-nt biotinylated ARE Msi1 mRNA binding in human MDA-MB-231 cells at 10 uM by Western blotting analysis based pull-down assay; assay type: cell-based
MDA-MB-231 [15] = assay: Inhibition of HuR-Bcl-2 mRNA binding in human MDA-MB-231 cells at 5 uM incubated for 6 hrs by RNP immunoprecipitation assay; assay type: cell-based
[16] = Inhibition of HuR-ARE fluorescein-labeled Msi1 mRNA binding (unknown origin) by fluorescence polarization assay; parameters: species or system Homo sapiens
MDA-MB-231 [17] = assay: Inhibition of cell invasion of human MDA-MB-231 cells at 10 uM incubated for 24 hrs by crystal violet staining based analysis; assay type: functional
[18] = target: ELAV-like protein 1 (Homo sapiens) (UniProt Q15717); assay: Thermal stabilization of HuR in human MDA-MB-231 cells at 20 uM at 42 to 54 degreeC incubated for 1 hr by western blot based cellular thermal shift assay; assay type: cell-based
MDA-MB-231 [19] = assay: Inhibition of HuR-Msi2 mRNA binding in human MDA-MB-231 cells at 10 uM incubated for 6 hrs by RNP immunoprecipitation assay; assay type: cell-based
MDA-MB-231 [20] = assay: Inhibition of HuR-TGFB2 mRNA binding in human MDA-MB-231 cells assessed as half life of TGFB2 in presence of actinomycin D (reference value: 7.202 hrs); assay type: cell-based
MDA-MB-231 [21] = assay: Inhibition of HuR-XIAP mRNA binding in human MDA-MB-231 cells at 10 uM incubated for 6 hrs by RNP immunoprecipitation assay; assay type: cell-based
MDA-MB-231 [22] = assay: Inhibition of HuR-Bcl-2 mRNA binding in human MDA-MB-231 cells at 10 uM incubated for 6 hrs by RNP immunoprecipitation assay; assay type: cell-based
MDA-MB-231 [23] = assay: Inhibition of HuR-THBS1 mRNA binding in human MDA-MB-231 cells assessed as half life of THBS1 in presence of actinomycin D (reference value: 10.46 hrs); assay type: cell-based
MDA-MB-231 [24] = assay: Antitumor activity against human MDA-MB-231 cells xenografted iv dosed athymic NCr-nu/nu mouse assessed as reduction in tumor size administered 3 times a week for 3 weeks; assay type: functional, organism-based

SMILES | Ki [1] [µM] | IC50 (MDA-MB-231 [2]) [µM] | also measured
COC(=O)c1cc2cc(NC(=O)c3ccccn3)ccc2s1 |  | > 100 | 
O=C(Nc1ccc2sc(C(=O)NO)cc2c1)c1ccccn1 |  | 4.43 | 
COC(=O)c1cc2cc(NC(=O)c3ccc(N(C)C)cc3)ccc2s1 |  | > 100 | 
O=C(Nc1ccc2[nH]c(C(=O)O)cc2c1)c1ccccn1 |  | > 100 | 
CCOC(=O)c1cc2cc(NC(=O)c3ccc(N(C)C)cc3)ccc2[nH]1 |  | > 100 | 
CCOC(=O)c1cc2cc(NC(=O)c3ccccn3)ccc2[nH]1 |  | > 100 | 
CN(C)c1ccc(C(=O)Nc2ccc3sc(C(=O)NO)cc3c2)cc1 |  | 1.31 | Activity [3]: Active; inhibition (MDA-MB-231 [4]): Active; Activity (MDA-MB-231 [5]): inactive; IC50 (MDA-MB-231 [6]): 3.66 µM; inhibition (MDA-MB-231 [7]): Active; Activity (MDA-MB-231 [8]): Dose-Dependent Effect; inhibition (MDA-MB-231 [9]): inactive; IC50 (MDA-MB-231 [10]): 3.01 µM; inhibition (MDA-MB-231 [11]): Active; Activity (MDA-MB-231 [12]): Dose-Dependent Effect; Activity (MDA-MB-231 [13]): Dose-Dependent Effect; inhibition (MDA-MB-231 [14]): Active; inhibition (MDA-MB-231 [15]): Active
O=C(O)c1cc2cc([N+](=O)[O-])ccc2[nH]1 | 6.95 |  | IC50 [1]: 29.7 µM
CN(C)c1ccc(C(=O)Nc2ccc3[nH]c(C(=O)O)cc3c2)cc1 |  | 99.8 | 
CC(C)(C)c1ccc(S(=O)(=O)Nc2ccc3sc(/C=C/C(=O)NO)cc3c2)cc1 |  |  | IC50 [16]: 3.34 µM; Ki [16]: 0.783 µM
O=C(Nc1ccc2sc(C(=O)O)cc2c1)c1ccccn1 |  | > 100 | 
O=C(Nc1ccc2[nH]c(C(=O)NO)cc2c1)c1ccccn1 |  | 75.3 | inhibition (MDA-MB-231 [17]): inactive; Activity [18]: inactive; inhibition (MDA-MB-231 [19]): inactive; T1/2 (MDA-MB-231 [20]): 7.09 h; inhibition (MDA-MB-231 [21]): inactive; inhibition (MDA-MB-231 [22]): inactive; T1/2 (MDA-MB-231 [23]): 9.03 h
CN(C)c1ccc(C(=O)Nc2ccc3sc(C(=O)O)cc3c2)cc1 |  | > 100 | 
COC(=O)c1cc2cc(NS(=O)(=O)c3ccc(C(C)(C)C)cc3)ccc2s1 | 15.4 | 27.4 | 
CC(C)(C)c1ccc(C(=O)O)cc1 |  |  | IC50 [1]: > 200 µM
CC(C)(C)c1ccc(S(=O)(=O)Nc2ccc3sc(C(=O)O)cc3c2)cc1 | 2.42 | > 100 | 
CN(C)c1ccc(C(=O)Nc2ccc3[nH]c(C(=O)NO)cc3c2)cc1 |  | 11.3 | 
CC(C)(C)c1ccc(C(=O)Nc2ccc3[nH]c(C(=O)O)cc3c2)cc1 |  | > 100 | 
CC(=O)O[C@@]12CO[C@@H]1C[C@H](O)[C@@]1(C)C(=O)[C@H](O)C3=C(C)[C@@H](OC(=O)[C@H](O)[C@@H](NC(=O)OC(C)(C)C)c4ccccc4)C[C@@](O)([C@@H](OC(=O)c4ccccc4)[C@H]21)C3(C)C |  |  | Activity (MDA-MB-231 [24]): Active

Further lines, with some results ahead:

Ki [1] [µM] | SMILES | IC50 (MDA-MB-231 [2]) [µM] | also measured
> 20 | COC(=O)c1cc2cc(NC(=O)c3ccc(C(C)(C)C)cc3)ccc2s1 | 5.28 | 
5.08 | CC(C)(C)c1ccc(C(=O)Nc2ccc3sc(C(=O)O)cc3c2)cc1 | 90.5 | 
0.44 | CC(C)(C)c1ccc(C(=O)Nc2ccc3sc(C(=O)NO)cc3c2)cc1 | 3.71 | 
> 20 | CCOC(=O)/C=C/c1cc2cc(NC(=O)c3ccc(C(C)(C)C)cc3)ccc2[nH]1 | 1.13 | 
7.76 | CN(C)c1ccc(C(=O)Nc2ccc3[nH]c(/C=C/C(=O)O)cc3c2)cc1 | > 100 | 
1.75 | CC(C)(C)c1ccc(S(=O)(=O)Nc2ccc3[nH]c(C(=O)NO)cc3c2)cc1 | 32 | 
6.17 | CC(C)(C)c1ccc(S(=O)(=O)Nc2ccc3[nH]c(C(=O)O)cc3c2)cc1 | > 100 | 
> 20 | CCOC(=O)c1cc2cc(NS(=O)(=O)c3ccc(C(C)(C)C)cc3)ccc2[nH]1 | 31.8 | 
0.97 | CC(C)(C)c1ccc(C(=O)Nc2ccc3sc(/C=C/C(=O)O)cc3c2)cc1 | 72.1 | 
0.69 | CN(C)c1ccc(C(=O)Nc2ccc3[nH]c(/C=C/C(=O)NO)cc3c2)cc1 | 8.91 | 
0.34 | CC(C)(C)c1ccc(C(=O)Nc2ccc3[nH]c(/C=C/C(=O)NO)cc3c2)cc1 | 2.24 | 
3.83 | CC(C)(C)c1ccc(C(=O)Nc2ccc3sc(CCC(=O)O)cc3c2)cc1 | 19.8 | 
3.24 | CC(C)(C)c1ccc(S(=O)(=O)Nc2ccc3sc(C(=O)NO)cc3c2)cc1 | 12.9 | 
3.35 | CC(C)(C)c1ccc(C(=O)Nc2ccc3[nH]c(/C=C/C(=O)O)cc3c2)cc1 | > 100 | 
4.39 | CCOC(=O)/C=C/c1cc2cc(NC(=O)c3ccc(N(C)C)cc3)ccc2[nH]1 | 76.3 | 
13.3 | CCOC(=O)/C=C/c1cc2cc(NC(=O)c3ccc(C(C)(C)C)cc3)ccc2s1 | 57.7 | 
11.8 | CCOC(=O)CCc1cc2cc(NC(=O)c3ccc(C(C)(C)C)cc3)ccc2s1 | 6.52 | 
0.15 | CC(C)(C)c1ccc(C(=O)Nc2ccc3sc(/C=C/C(=O)NO)cc3c2)cc1 | 1.33 | IC50 [16]: 0.597 µM; Ki [16]: 0.139 µM
0.83 | CC(C)(C)c1ccc(C(=O)Nc2ccc3sc(CCC(=O)NO)cc3c2)cc1 | 3.49 | 
> 20 | CCOC(=O)c1cc2cc(NC(=O)c3ccc(C(C)(C)C)cc3)ccc2[nH]1 | 25.1 | 
